Reference: patent publication US7683061B2, “Triazine dimers for the treatment of autoimmune diseases” (ProMetic BioSciences Inc., priority 2003, dated 2010)
Like-named read-outs stand apart in the source and are kept apart here.

How the values were obtained:
[1] = system: TNFα production, J774A-1 cells; experiment: LPS-induced TNFα production in J774A-1 cells (ELISA); assay type: cell-based; details: Mus musculus, J774.A1, 24 h, read-out: IC50 (μM), inhibition of TNFα released by LPS induction
Experimental: Effect of compounds on TNFα production was measured by ELISA using J774-1 cells stimulated by LPS. J774-1 cells were cultured in the presence or absence of LPS and compound. Cells were cultured at 37° C. for 24 h and thereafter the supernatants were collected for the determination of the concentration of TNFα by ELISA as recommended by the manufacturer (BD Biosciences). Data was analyzed in Microsoft Excel and the concentration of compound which inhibits 50% of TNFα production (IC50) was calculated using Prism software.

[2] = target: T1, Fc portion of human IgG (binding of protein A to human IgG); experiment: Competitive protein A binding ELISA; details: Table 1
T1 construct: fused on or other part: Horseradish peroxidase chemically conjugated to the IgG (HRP-IgG)
Experimental: As described above, this assay evaluates the ability of the exemplified compounds to mimic protein A. Such compounds can bind to the Fc portion of human IgG as ascertained by the inhibition of binding of protein A to human IgG. The competitive protein A binding ELISA assay was performed on a 96-well plate Maxisorp surface to enhance the binding of protein A to the bottom of the plate. The wells were coated with 100 μL of protein A (0.8 μg) and incubated overnight at 4° C. After incubation, unbound protein A was removed by three washes with phosphate buffer saline (PBS). The plate was then incubated with 100 μL/well of a 2% solution of bovine serum albumin (BSA) for 1 h at 37° C. to block non specific protein binding. After incubation, the plate was washed to times with PBS. 50 μL of compound or protein A, diluted in PBS or PBS-20% DMSO at appropriate concentration, were added to the wells followed by addition of 50 μL of peroxidase-conjugated human IgG (HRP-IgG). After 1 h incubation at 37° C., the plate was washed free times with PBS to remove unbound HRP-IgG. Bound HRP-IgG was detected by incubation with 100 μL of 2,2′-Azino-di[3-ethylbenzothiazoline sulfonate]diammonium salt crystals (ABTS) solution for 20 min in the dark at room temperature. The plate was then read at 405 nm on a EL 800, universal Microplate reader (Bio-Tek). Data was analyzed in Microsoft Excel and the concentration of compound which inhibits 50% binding of protein A (IC50) was calculated using Prism software.
Table 1 represents the IC50 of compounds tested in the competitive protein A binding ELISA assay, which consists of a side-by-side analysis in PBS and PBS-20% DMSO. DMSO was used to increase the solubility of some of the compounds.

[3] = system: MRL/lpr mice; experiment: SLE-like syndrome in MRL/lpr mice; assay type: in vivo; details: control group 10%
Text: FIG. 5 is an example of the effect of compounds on survival of MRL/lpr mice. These mice also spontaneously develop SLE-like syndrome. MRL/lpr have a homozygous fas mutation, which accelerates autoimmunity. […] Furthermore, compounds 1 and 20 increase the survival (40%) compared to the control group (10%).

[4] = system: female Lewis rats, collagen-induced arthritis; experiment: Collagen-induced arthritis (CIA); assay type: in vivo; details: intravenous; by day 14 and beyond
Experimental: Collagen-induced arthritis (CIA) was induced in female Lewis rats by intradermal administration of heterologous (bovine) type II collagen (250 μg) solubilized in 0.1 M acetic acid and emulsified in Complete Freund's Adjuvant (CFA). Rats were treated with the vehicle or methotrexate or compound 1 by intravenous injections at day 8, 9, 12, 14 and 16. Synovitis typically develops 12-15 days postimmunization in 80-90% of the animals. Once arthritis appears, each paw was examined two to three times a week. Both the incidence and severity of the arthritis was evaluated. Incidence is defined as the number of rats with clinical evidence of joint inflammation during the study period while severity was quantified by scoring daily each paw integer on a scale of 0 to 4 (0=normal, 4=maximum; Table 7) based on increasing levels of swelling, periarticular erythema and stiffness. The sum of the scores for all four paws was calculated as the arthritic index with a maximum possible score of 16 per rat. Since CIA primarily affects hind limbs, scores of 6-8 represent severe arthritis.

[5] = system: female Lewis rats, adjuvant-induced arthritis; experiment: Freund's adjuvant-induced arthritis (AIA); assay type: in vivo
Text: AIA was induced in female Lewis rats by the injection of lyophilized Mycobacterium butyricum suspended in mineral oil into the footpad. The development of aridity was monitored over a 3 weeks period post-adjuvant injection, inflammation peaks at day 3 following the adjuvant administration. Immune activation appears around day 14. Compounds were orally or intravenously administered at different doses at day −3, −2 and −1 pre-adjuvant injection and at different regimen as specified in the exponent starting from day 10 through 21 post-adjuvant injection or animals were treated with oral admiration of compound 19a from day −3 to day 21. Body weight was recorded. The arthritis index, which is a measure of inflammation (oedema), redness and stiffness of the articulations, was used to monitor the development of the disease. The degree of arthritis was determined by measuring two perpendicular diameters of the ankles in the mediolateral and dorsoventral planes using a caliper. Joint circumference in millimeters is then calculated using a geometric formula. Both the incidence and severity of the arthritis was evaluated. Incidence is defined as the number of rats with clinical evidence of joint inflammation during the study period.

[6] = system: RAW 264.7 cells; experiment: Phagocytosis of FITC-immune complexes by RAW 264.7 cells; assay type: cell-based; details: Mus musculus, RAW264.7; 20 μM; read-out: inhibition of phagocytosis of IC
Experimental: This assay was performed to determine the ability of protein A mimic compounds to stimulate or inhibit uptake of FITC-Immune Complex (IC). FITC-IC was prepared by mixing human serum albumin (HSA)-fluorescein isothiocyanate (FITC) with mouse IgG anti-HSA at a 1:4 ratio (four molecules of antibody for one molecule of antigen) on a rotary shaker for 1 h at room temperature. Soluble IC was then incubated with or without compounds or protein A for 10 min. This mixture was added to RAW 264.7 cells and incubated for 2 h at 37° C. for IC phagocytosis. After incubation, cells were washed twice in cold PBS (5 min, 1200 rpm) and fixed with 500 μL PBS containing 2% formaldehyde. FITC signal taken up by RAW 264.7, which is indicative of IC phagocytosis, was determined by flow cytometry analysis in a Becton Coulter counter with an argon laser and signal was measured through a 530/30 nm filter.

[7] = PBS-20% DMSO, read-out: IC50 (μM): Assay in PBS-20% DMSO

SMILES	IC50 [1] [µM]	IC50 [2, 7] [µM]	survival of MRL/lpr mice [3] [%]	reduction in the severity of arthritis (arthritic index) [4] [%]	inhibition of chronic inflammation (days 12 to 21) ([5]; days 15 to 21)	reduction in the severity of arthritis (inflammatory index) ([5]; intravenous, by day 19 and over, FIG. 10) [%]	IC50 ([2]; PBS, read-out: IC50 (μM): Assay in PBS) [µM]	inhibition at 20 µM [6] [%]
OCCNc1nc(NCCc2ccc(Nc3nc(NCCc4ccc(O)cc4)nc(Nc4ccccc4)n3)cc2)nc(Nc2ccccc2)n1 [Compound 20]	23.3	26	40	–	–	–	–	–
CN(Cc1cnc2nc(N)nc(N)c2n1)c1ccc(C(=O)N[C@@H](CCC(=O)O)C(=O)O)cc1 [methotrexate, reference compound]	–	–	–	50	strong and significant inhibition of inflammation	50	–	–
N=C(N)NCCNc1nc(NCCc2ccc(Oc3nc(NCCc4ccc(O)cc4)nc(Nc4ccccc4)n3)cc2)nc(Nc2ccccc2)n1 [Compound 14]	11.8	63	–	–	–	–	33	~50
